Data reported in ChEMBL document CHEMBL5725459, “(R)-2-methyl-piperazine derivatives as CXCR3 receptor modulators” (2018).

The compounds below were run against T1, C-X-C chemokine receptor type 3 (Homo sapiens, UniProt P49682) (assay: Receptor Internalization Assay (RIA): Stock solutions of test compounds are made up at a concentration of 10 mM in DMSO, and serially diluted in PBS containing 0.5% BSA to concentrations required for inhibition dose response curves. Diluted compounds are then mixed with an equal volume of CXCL10 (Peprotech) diluted in PBS. Anticoagulated venous human whole blood is added to the mixture, which is then incubated in a CO2 incubator at 37° C. to allow for ligand mediated receptor internalization (final CXCL10 concentration is 9 nM). After 30 min, the blood is mixed with fluorescently labeled CXCR3 and CD4 specific antibodies (Becton Dickinson) and incubated on ice for 10 minutes. Samples are then mixed with BD FACS Lysing Solution (Becton Dickinson) in order to eliminate red blood cells. After washing the cells with PBS containing 0.5% BSA, the samples are then analyzed in a flow cytometer (FACS Canto II, Becton Dickinson). For data analysis using FACSDiva software (Becton Dickinson), the mean fluorescence corresponding to CXCR3 cell surface expression was determined on CD4 positive cells. The calculated IC50 values may fluctuate depending on the daily assay performance. Fluctuations of this kind are known to those skilled in the art. In the case where IC50 values have been determined several times for the same compound, mean values are given.).
T1 sequence (P49682 whole entry): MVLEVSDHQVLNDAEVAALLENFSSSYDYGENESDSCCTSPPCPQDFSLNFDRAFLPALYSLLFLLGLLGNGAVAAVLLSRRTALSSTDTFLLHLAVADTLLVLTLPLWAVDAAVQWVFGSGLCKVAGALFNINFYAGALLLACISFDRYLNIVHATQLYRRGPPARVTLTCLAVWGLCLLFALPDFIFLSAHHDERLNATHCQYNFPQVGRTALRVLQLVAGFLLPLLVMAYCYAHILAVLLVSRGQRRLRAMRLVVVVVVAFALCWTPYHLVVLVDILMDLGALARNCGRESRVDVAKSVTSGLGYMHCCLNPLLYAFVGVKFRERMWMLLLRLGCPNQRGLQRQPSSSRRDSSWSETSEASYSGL
`CC(C)c1ncn(CC(=O)N2C(C)CNCC2c2sc(C(F)(F)F)cc2-c2cnc(C3CC3)nc2)n1` (centres undefined) showed an IC50 of 524 nM. Compound `COCc1ncn(CC(=O)N2C(C)CNCC2c2sc(C(F)(F)F)cc2-c2cnc(C3CC3)nc2)n1` (centres undefined) has an IC50 of 1390 nM. Compound `CCc1ncn(CC(=O)N2C(C)CNCC2c2sc(C(F)(F)F)cc2-c2cnc(C(F)(F)F)nc2)n1` (centres undefined) has an IC50 of 148 nM. In the case of `CC1CNCC(c2sc(C(F)(F)F)cc2-c2cnc(C(F)(F)F)nc2)N1C(=O)Cn1cnc(C(N)=O)n1` (centres undefined), the IC50 is reported as 1710 nM. With `CC1CNCC(c2sc(C(F)(F)F)cc2-c2cnc(C(F)(F)F)nc2)N1C(=O)Cn1cnc(C(C)(C)C)n1` (centres undefined) the IC50 was 349 nM. In the case of `CC1CNCC(c2sc(C(F)(F)F)cc2-c2cnc(C(F)(F)F)nc2)N1C(=O)Cn1cnc(CO)n1` (centres undefined), the IC50 is reported as 809 nM. Compound `CC1CNCC(c2sc(C(F)(F)F)cc2-c2cnc(C3CC3)nc2)N1C(=O)Cn1cnc(C(C)(C)C)n1` (centres undefined) has an IC50 of 679 nM. `CCCc1ncn(CC(=O)N2C(C)CNCC2c2sc(C(F)(F)F)cc2-c2cnc(C(F)(F)F)nc2)n1` (centres undefined) was tested, and the IC50 was 221 nM. `CCc1ncn(CC(=O)N2C(C)CNCC2c2sc(C(F)(F)F)cc2-c2cnc(C3CC3)nc2)n1` (centres undefined) showed an IC50 of 190 nM. `Cc1ncn(CC(=O)N2C(C)CNCC2c2sc(C(F)(F)F)cc2-c2cnc(C3CC3)nc2)n1` (centres undefined) gave an IC50 of 462 nM. Work on `COCc1ncn(CC(=O)N2C(C)CNCC2c2sc(C(F)(F)F)cc2-c2cnc(C(F)(F)F)nc2)n1` (centres undefined) yielded an IC50 of 606 nM. Compound `CC1CNCC(c2sc(C(F)(F)F)cc2-c2cnc(C(F)(F)F)nc2)N1C(=O)Cn1cnc(C(C)(C)O)n1` (centres undefined) has an IC50 of 830 nM. With `Cc1ncn(CC(=O)N2C(C)CNCC2c2sc(C(F)(F)F)cc2-c2cnc(C(F)(F)F)nc2)n1` (centres undefined) the IC50 was 189 nM. With `CCOc1ncc(-c2cc(C(F)(F)F)sc2C2CNCC(C)N2C(=O)Cn2cnc(CC)n2)cn1` (centres undefined) the IC50 was 235 nM. `CCOc1ncc(-c2cc(C(F)(F)F)sc2C2CNCC(C)N2C(=O)Cn2cnc(C(C)(C)C)n2)cn1` (centres undefined) showed an IC50 of 552 nM. `CCOc1ncc(-c2cc(C(F)(F)F)sc2C2CNCC(C)N2C(=O)Cn2cnc(C)n2)cn1` (centres undefined) was tested, and the IC50 was 211 nM. With `CCOc1ncc(-c2cc(C(F)(F)F)sc2C2CNCC(C)N2C(=O)Cn2cnc(COC)n2)cn1` (centres undefined) the IC50 was 950 nM. Work on `CC(C)c1ncn(CC(=O)N2C(C)CNCC2c2sc(C(F)(F)F)cc2-c2cnc(C(F)(F)F)nc2)n1` (centres undefined) yielded an IC50 of 174 nM. `CCOc1ncc(-c2cc(C(F)(F)F)sc2C2CNCC(C)N2C(=O)Cn2cnc(C(C)C)n2)cn1` (centres undefined) showed an IC50 of 299 nM.
